Holding throughout (type): cell-based
Experiment [1] has as its target T1, human H1 receptor (Homo sapiens, UniProt P35367).
T1 construct: expressed in transfected cells
As to the kind of experiment: Histamine H1 functional antagonist assay (FLIPR): determination of antagonist pA2. Conditions: CHO cells expressing H1 receptor, shift of histamine concentration response curve. As to the method:
The human H1 receptor is cloned using known procedures described in the literature [Biochem. Biophys. Res. Commun., 201(2):894 (1994)]. Chinese hamster ovary (CHO) cells stably expressing the human H1 receptor are generated according to known procedures described in the literature [Br. J. Pharmacol., 117(6):1071 (1996)]. The histamine H1 receptor expressing CHO cells are seeded into non-coated black-walled clear bottom 96-well tissue culture plates as described above. Following overnight culture, growth medium is removed from each well, washed with 200 μl PBS and is replaced with 50 μl loading dye (250 μM Brilliant Black, 1 μM Fluo-4 diluted in Tyrodes buffer+probenecid (145 mM NaCl, 2.5 mM KCl, 10 mM HEPES, 10 mM D-glucose, 1.2 mM MgCl2, 1.5 mM CaCl2, 2.5 mM probenecid, pH adjusted to 7.40 with NaOH 1.0 M)). Cells are incubated for 45 min at 37° C. The loading buffer is removed and the cells are washed as above, and 90 μl of Tyrodes buffer+probenecid is added to each well. 10 μl of test compound, diluted to the required concentration in Tyrodes buffer+probenecid (or 10 μl Tyrodes buffer+probenecid as a control) is added to each well and the plate is incubated for 30 min at 37° C., 5% CO2. The plates are then placed into a FLIPR™ (Molecular Devices, UK) to monitor cell fluorescence (λex=488 nm, λEM=540 nm) in the manner described in Sullivan et al., (In: Lambert DG (ed.), Calcium Signaling Protocols, New Jersey: Humana Press, 1999, 125-136) before and after the addition of 50 μl histamine over a concentration range of 1 mM-0.1 nM. The resultant concentration response curves are analysed by non-linear regression using a standard four parameter logistic equation to determine the histamine EC50, the concentration of histamine required to produce a response of 50% of the maximum response to histamine. The antagonist pA2 is calculated using the following standard equation: pA2=log(DR-1)−log [B] where DR=dose ratio, defined as EC50antagonist-treated/EC50control and [B]=concentration of antagonist.

In experiment [2] the target is T1, human H1 receptor. As to the kind of experiment: Histamine H1 functional antagonist assay (FLIPR): antagonist duration after washout. Conditions: at one or more time points, typically 30-270 min. The procedure: (§1) The human H1 receptor is cloned using known procedures described in the literature [Biochem. Biophys. Res. Commun., 201(2):894 (1994)]. Chinese hamster ovary (CHO) cells stably expressing the human H1 receptor are generated according to known procedures described in the literature [Br. J. Pharmacol., 117(6):1071 (1996)].
To determine the antagonist duration, cells are cultured overnight in non-coated black-walled clear bottom 96-well tissue culture plates, are washed with PBS and are incubated with a concentration of antagonist chosen to give an approximate DR in the range 30-300. Following the 30 min antagonist incubation period, the cells are washed two or three times with 200 μl of PBS and then 100 μl Tyrodes buffer is added to each well to initiate antagonist dissociation. Following incubation for predetermined times, typically 30-270 min at 37° C., the cells are then washed again with 200 μl PBS and are incubated with 100 μl Tyrodes buffer containing Brilliant Black, probenecid and Fluo-4 for 45 min at 37° C., as described above. After this period, the cells are challenged with histamine in the FLIPR™ as described above. The dose ratio at each time point is used to determine the fractional H1 receptor occupancy by the following equation: fractional receptor occupancy=(DR-1)/DR. The decrease in receptor occupancy over time approximates to a straight line and is analysed by linear regression. The slope of this straight line fit is used as an index of the dissociation rate of the antagonist. The dose ratios for antagonist treated cells and for antagonist treated and washed cells at each time point are used to calculate a relative dose ratio (rel DR) which is also used as an index of antagonist duration. Antagonists with long duration of action produce rel DR values close to 1, and antagonists with short duration of action produce rel DR values that approaches the dose ratio value obtained for antagonist treatment alone.

In experiment [3] the target is T1, human H1 receptor. Briefly: Histamine H1 functional antagonist assay (FLIPR): determination of functional pKi values. Conditions: CHO cells expressing human H1 receptor, histamine at EC80, read-out: average pKa (pKb) at H1 (converted). The procedure: as §1
The histamine H1 cell line is seeded into non-coated black-walled clear bottom 384-well tissue culture plates in alpha minimum essential medium (Gibco/Invitrogen, cat no. 22561-021), supplemented with 10% dialysed foetal calf serum (Gibco/Invitrogen cat no. 12480-021) and 2 mM L-glutamine (Gibco/Invitrogen cat no 25030-024) and is maintained overnight at 5% CO2, 37° C.
Excess medium is removed from each well to leave 10 μl. 30 μl loading dye (250 μM Brilliant Black, 2 μM Fluo-4 diluted in Tyrodes buffer+probenecid (145 mM NaCl, 2.5 mM KCl, 10 mM HEPES, 10 mM D-glucose, 1.2 mM MgCl2, 1.5 mM CaCl2, 2.5 mM probenecid, pH adjusted to 7.40 with NaOH 1.0 M)) is added to each well and the plates are incubated for 60 min at 5% CO2, 37° C.
10 μl of test compound, diluted to the required concentration in Tyrodes buffer+probenecid (or 10 μl Tyrodes buffer+probenecid as a control) is added to each well and the plate is incubated for 30 min at 37° C., 5% CO2. The plates are then placed into a FLIPR™ (Molecular Devices, UK) to monitor cell fluorescence (λex=488 nm, λEM=540 nm) in the manner described in Sullivan et al., (In: Lambert DG (ed.), Calcium Signaling Protocols, New Jersey: Humana Press, 1999, 125-136) before and after the addition of 10 μl histamine at a concentration that results in the final assay concentration of histamine being EC80.
Functional antagonism is indicated by a suppression of histamine induced increase in fluorescence, as measured by the FLIPR™ system (Molecular Devices). By means of concentration effect curves, functional affinities are determined using standard pharmacological mathematical analysis.

T1 sequence (P35367 whole entry): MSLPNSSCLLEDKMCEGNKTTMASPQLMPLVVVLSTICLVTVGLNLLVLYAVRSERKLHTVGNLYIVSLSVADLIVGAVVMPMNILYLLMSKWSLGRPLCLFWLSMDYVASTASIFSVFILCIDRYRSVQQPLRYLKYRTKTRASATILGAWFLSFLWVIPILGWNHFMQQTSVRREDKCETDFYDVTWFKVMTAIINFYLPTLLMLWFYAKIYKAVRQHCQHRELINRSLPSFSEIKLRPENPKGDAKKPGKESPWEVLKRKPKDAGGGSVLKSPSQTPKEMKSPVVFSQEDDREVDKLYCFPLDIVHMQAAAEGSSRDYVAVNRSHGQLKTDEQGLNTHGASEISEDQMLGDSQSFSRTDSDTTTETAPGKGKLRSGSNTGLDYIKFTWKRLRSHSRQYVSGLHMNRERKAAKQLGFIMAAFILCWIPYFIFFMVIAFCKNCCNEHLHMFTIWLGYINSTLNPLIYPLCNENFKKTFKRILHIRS

Turning to `CC(C)S(=O)(=O)NCCN1CCC[C@@H]1Cn1nc(Cc2ccc(Cl)cc2)c2ccccc2c1=O` [Example 8, N-[2-((2R)-2-{[4-[(4-Chlorophenyl)methyl]-1-oxo-2(1H)-phthalazinyl]methyl}-1-pyrrolidinyl)ethyl]-2-propanesulfonamide], the Kb on human H1 receptor [1] was under 1 nM; at human H1 receptor [3] it was under 100 nM. For the same molecule, the “duration of action compared with azelastine” value on human H1 receptor [2] is “longer duration of action than azelastine”.

For `CCS(=O)(=O)[C@@H](C)CCN1CCC[C@@H]1Cn1nc(Cc2ccc(Cl)cc2)c2ccccc2c1=O` [Example 5A, 4-[(4-Chlorophenyl)methyl]-2-({(2R)-1-[(3S)-3-(ethylsulfonyl)butyl]-2-pyrrolidinyl}methyl)-(2H)-phthalazinone], the Kb on human H1 receptor [1] is under 10 nM.

As to `CCS(=O)(=O)CCCN1CCC[C@@H]1Cn1nc(Cc2ccc(Cl)cc2)c2cnccc2c1=O` [Example 12, 4-[(4-Chlorophenyl)methyl]-2-({(2R)-1-[3-(ethylsulfonyl)propyl]-2-pyrrolidinyl}methyl)pyrido[3,4-d]pyridazin-1(2H)-one], on human H1 receptor [1], the Kb was under 1 nM. Moreover, at human H1 receptor [2], the “duration of action compared with azelastine” value is listed as “longer duration of action than azelastine”.

On to `CCS(=O)(=O)CCN1CCC[C@@H]1Cn1nc(Cc2ccc(Cl)cc2)c2cnccc2c1=O` [Example 13, 4-[(4-Chlorophenyl)methyl]-2-({(2R)-1-[2-(ethylsulfonyl)ethyl]-2-pyrrolidinyl}methyl)pyrido[3,4-d]pyridazin-1(2H)-one], for which, on human H1 receptor [1], the Kb is under 10 nM.

With `CCCS(=O)(=O)NCCN1CCC[C@@H]1Cn1nc(Cc2ccc(Cl)cc2)c2ccccc2c1=O` [Example 7, N-[2-((2R)-2-{[4-[(4-Chlorophenyl)methyl]-1-oxo-2(1H)-phthalazinyl]methyl}-1-pyrrolidinyl)ethyl]-1-propanesulfonamide], the results for the Kb at human H1 receptor [1] and at human H1 receptor [3] were under 1 nM and under 100 nM, respectively. For the same molecule, the “duration of action compared with azelastine” value on human H1 receptor [2] is reported as “longer duration of action than azelastine”.

Turning to `CCS(=O)(=O)CCCN1CCC[C@@H]1Cn1nc(Cc2ccc(Cl)cc2)c2ccccc2c1=O` [Example 3, 4-[(4-Chlorophenyl)methyl]-2-({(2R)-1-[3-(ethylsulfonyl)propyl]-2-pyrrolidinyl}methyl)-1(2H)-phthalazinone], the Kb on human H1 receptor [1] was under 1 nM. The “duration of action compared with azelastine” value at human H1 receptor [2] is on record as “longer duration of action than azelastine”.

As for `CCS(=O)(=O)[C@H](C)CCN1CCC[C@@H]1Cn1nc(Cc2ccc(Cl)cc2)c2ccccc2c1=O` [Example 5B, 4-[(4-Chlorophenyl)methyl]-2-({(2R)-1-[(3R)-3-(ethylsulfonyl)butyl]-2-pyrrolidinyl}methyl)-(2H)-phthalazinone], on human H1 receptor [1], the Kb was under 10 nM.

Regarding `CCS(=O)(=O)CCN1CCC[C@@H]1Cn1nc(Cc2ccc(Cl)cc2)c2ccccc2c1=O` [Example 1, 4-[(4-Chlorophenyl)methyl]-2-({(2R)-1-[2-(ethylsulfonyl)ethyl]-2-pyrrolidinyl}methyl)-1(2H)-phthalazinone], the Kb at human H1 receptor [1] is under 1 nM.

Take `CCS(=O)(=O)NCCN1CCC[C@@H]1Cn1nc(Cc2ccc(Cl)cc2)c2ccccc2c1=O` [Example 6, N-[2-((2R)-2-{[4-[(4-Chlorophenyl)methyl]-1-oxo-2(1H)-phthalazinyl]methyl}-1-pyrrolidinyl)ethyl]ethanesulfonamide]: the Kb on human H1 receptor [1] was under 1 nM. Moreover, the “duration of action compared with azelastine” value at human H1 receptor [2] is “longer duration of action than azelastine”.

Regarding `O=c1c2ccccc2c(Cc2ccc(Cl)cc2)nn1C[C@H]1CCCN1CCS(=O)(=O)N1CCCCC1` [Example 2, 4-[(4-Chlorophenyl)methyl]-2-({(2R)-1-[2-(1-piperidinylsulfonyl)ethyl]-2-pyrrolidinyl}methyl)-1(2H)-phthalazinone], the Kb at human H1 receptor [3] was under 100 nM.

Regarding `CCCNC(=O)NCCN1CCC[C@@H]1Cn1nc(Cc2ccc(Cl)cc2)c2cnccc2c1=O` [Example 14, N-[2-((2R)-2-{[4-[(4-chlorophenyl)methyl]-1-oxopyrido[3,4-d]pyridazin-2(1H)-yl]methyl}-1-pyrrolidinyl)ethyl]-M-propylurea], the Kb at human H1 receptor [1] was under 1 nM.

With `CCCNC(=O)NCCN1CCC[C@@H]1Cn1nc(Cc2ccc(Cl)cc2)c2ccccc2c1=O` [Example 11, N-[2-((2R)-2-{[4-[(4-Chlorophenyl)methyl]-1-oxo-2(1H)-phthalazinyl]methyl}-1-pyrrolidinyl)ethyl]-M-propylurea], the Kb on human H1 receptor [1] was under 1 nM. Moreover, the “duration of action compared with azelastine” value on human H1 receptor [2] was “longer duration of action than azelastine”.

Consider `COCCCNS(=O)(=O)CCN1CCC[C@@H]1Cn1nc(Cc2ccc(Cl)cc2)c2ccccc2c1=O` [Example 10, 2-((2R)-2-{[4-[(4-Chlorophenyl)methyl]-1-oxo-2(1H)-phthalazinyl]methyl}-1-pyrrolidinyl)-N-[3-(methyloxy)propyl]ethanesulfonamide], for which the Kb on human H1 receptor [1] is under 10 nM; on human H1 receptor [3], under 100 nM. The “duration of action compared with azelastine” value on human H1 receptor [2] is “longer duration of action than azelastine”.

Regarding `CCS(=O)(=O)C(C)CCN1CCC[C@@H]1Cn1nc(Cc2ccc(Cl)cc2)c2ccccc2c1=O` (stereo partly drawn) [Example 4, 4-[(4-Chlorophenyl)methyl]-2-({(2R)-1-[3-(ethylsulfonyl)butyl]-2-pyrrolidinyl}methyl)-1(2H)-phthalazinone], the Kb at human H1 receptor [1] is under 1 nM.

The values above are taken from patent US20100216799A1, “PHTHALAZINE AND PYRIDO[3,4-D]PYRIDAZINE COMPOUNDS AS H1 RECEPTOR ANTAGONISTS” (Glaxo Group Limited, priority 2007, published 2010).
